Experimental data published in patent US10987349B2, “Antitumor agent and bromodomain inhibitor” (FUJIFILM Corporation, priority 2016, dated 2021).

Columns and labels:
BRD2 BD1 = target: T1, BRD2 BD1 (Homo sapiens, UniProt P25440); experiment: Binding assay, BRD2 BD1 to acetylated histone H4 Peptide-Biotin (EPIgeneous Binding Domain Kit A); conditions: for inhibition at 0.3 µM: test compound at 300 nmol/L, read-out: Binding inhibition percentage BRD2 BD1
T1 construct: BRD2 BD1, BRD3 BD1 and BRD4 BD1 (Cisbio); purchased Cisbio
Method: (§1) BRD2 BD1, BRD3 BD1 and BRD4 BD1 (Cisbio), [Lys(Ac)5/8/12/16]-Histone H4(1-25)-GSGSK (Biotin) (hereinafter referred to as “Peptide-Biotin,” AnaSpec), and EPIgeneous (registered trademark) Binding Domain Kit A (Cisbio) were used to carry out an assay. That is to say, per well, 4 μL of BRD2 BD1, BRD3 BD1 or BRD4 BD1, which was adjusted to 20 nmol/L with Diluent buffer; 4 μL of 25 nmol/L Peptide-Biotin; 2 μL of Dilution buffer (Cisbio) containing dimethyl sulfoxide (DMSO) or a test compound that was serially diluted with DMSO; 5 μL of 2.5 nmol/L Streptavidin-d2; and 5 μL of Anti-Gst-Eu+^3+ Cryptate Conjugate 50-fold diluted with Detection Buffer were added to a 384-well plate (Corning).
(§2) The obtained mixture was left at rest at room temperature for 20 hours, and thereafter, the fluoresence intensity at 665 nm and 620 nm was measured using Envision plate reader (Perkin Elmer), so that the inhibition percentage (%) of the test compound against the binding of a bromodomain in a bromodomain-containing protein to Peptide-Biotin was calculated. Binding inhibition percentage (%)=[1−{(fluorescence intensity at 665 nm of test compound−added well)/(fluorescence intensity at 620 nm of test compound−added well)}/{(fluorescence intensity at 665 nm of DMSO−added well)/(fluorescence intensity at 665 nm of DMSO−added well)}]×100
(§3) Moreover, using Graphpad prism 5 (GraphPad software), 50% inhibitory concentration [IC50 (nmol/L)] was calculated according to a non-linear regression analysis (log (inhibitor) vs. response—Variable slope (four parameters)).
(§4) Regarding other test compounds, each compound was diluted with DMSO to a final concentration of 300 nmol/L by the same method as that described above, and the binding inhibition percentage (%) of each test compound at 300 nmol/L against the binding of bromodomain in a bromodomain-containing protein to acetylated histone was calculated.

BRD4 BD1 = target: T2, BRD4 BD1 (Homo sapiens, UniProt O60885); experiment: Binding assay, BRD4 BD1 to acetylated histone H4 Peptide-Biotin (EPIgeneous Binding Domain Kit A); conditions: for inhibition at 0.3 µM: test compound at 300 nmol/L, read-out: Binding inhibition percentage BRD4 BD1
T2 construct: BRD2 BD1, BRD3 BD1 and BRD4 BD1 (Cisbio); purchased Cisbio
Method: as §1, §2, §3, §4

BRD3 BD1 = target: T3, BRD3 BD1 (Homo sapiens, UniProt Q15059); experiment: Binding assay, BRD3 BD1 to acetylated histone H4 Peptide-Biotin (EPIgeneous Binding Domain Kit A); conditions: for inhibition at 0.3 µM: test compound at 300 nmol/L, read-out: Binding inhibition percentage BRD3 BD1
T3 construct: BRD2 BD1, BRD3 BD1 and BRD4 BD1 (Cisbio); purchased Cisbio
Method: as §1, §2, §3, §4

BRD3 BD2 = target: T4, BRD3 BD2 (Homo sapiens, UniProt Q15059); experiment: Binding assay, BRD3 BD2 to acetylated histone H4 Peptide-Biotin (EPIgeneous Binding Domain Kit B); conditions: for inhibition at 0.3 µM: test compound at 300 nmol/L, read-out: Binding inhibition percentage BRD3 BD2
T4 construct: BRD2 BD2, BRD3 BD2 and BRD4 BD2 (Cisbio); purchased Cisbio
Method: (§5) Moreover, BRD2 BD2, BRD3 BD2 and BRD4 BD2 (Cisbio), Peptide-Biotin (AnaSpec), and EPIgeneous (registered trademark) Binding Domain Kit B (Cisbio) were used to carry out an assay. That is, per well, 4 μL of BRD2 BD2, BRD3 BD2 or BRD4 BD2, which was adjusted to 20 nmol/L with Diluent buffer; 4 μL of 250 nmol/L Peptide-Biotin; 2 μL of Dilution buffer (Cisbio) containing DMSO or a test compound that was serially diluted with DMSO; 5 μL of 25 nmol/L Streptavidin-XL665; 5 μL of Anti-Gst-Eu+^3+ Cryptate Conjugate 50-fold diluted with Detection Buffer were added to a 384-well plate (Corning).
as §2, §3, §4

[1] = system: human acute myeloid leukemia cell line MV4-11; experiment: Cell growth test (Cell Titer Glo) MV4-11; assay type: cell-based; conditions: 3 to 5 days
Excerpt: (§6) The human undifferentiated thymoma cell line Ty-82 (JCRB), the human acute myeloid leukemia cell lines MV4-11 (ATCC), MOLM-13 (ATCC) and RS4-11 (ATCC), the human lymphoma cell line Raji (JCRB), the human cervical epidermoid carcinoma cell line Hela (JCRB), the human lung adenocarcinoma cell line A549 (ATCC), the human colon cancer cell lines DLD1 (DS Pharma) and HCT116 (DS Pharma), and the human pancreatic cancer cell line MIAPACA-2 (ATCC) were used to carry out a cell growth test.
(§7) Ty-82, MV4-11, MOLM-13, RS4-11, Raji and DLD1 were each seeded in a well plate, in which Roswell Park Memorial Institute (RPMI)-1640 medium supplemented with penicillin/streptomycin and fetal bovine serum (FBS) with a final concentration of 10% was placed. Hela was seeded in Dulbecco's Modified Eagle's medium (DMEM) supplemented with penicillin/streptomycin and FBS with a final concentration of 10%. A549 and MIAPACA-2 were each seeded in a well plate, in which Minimum Essential Medium (MEM) supplemented with penicillin/streptomycin and FBS with a final concentration of 10% was placed. HCT116 was seeded in a well plate, in which McCoy's 5A medium supplemented with penicillin/streptomycin and FBS with a final concentration of 10% was placed.
(§8) Thereafter, a medium containing a test compound serially diluted with DMSO, or DMSO, was added to each well of the plate, in which the cells had been seeded, and the obtained mixture was then cultured under conditions of 37° C. and 5% CO2 for 3 to 5 days. Cell Titer Glo reaction solution (Promega) was added to the culture, and the amount of luminescence was then measured using Envision plate reader (PerkinElmer). Since the amount of luminescence is in proportion to the concentration of adenosine triphosphate (ATP) in cells, the amount of luminescence was used as an indicator of the number of living cells. The growth inhibition percentage of the test compound in each concentration was calculated according to the following equation. Growth inhibition percentage (%)=(amount of luminescence in test compound−added well)/(amount of luminescence in DMSO−added well)×100
(§9) The growth inhibition percentage of the test compound in each concentration was plotted by performing a non-linear regression analysis [(log (inhibitor) vs. response—Variable slope (four parameters)], using Graphpad prism 5, and a 50% growth inhibitory concentration [GI50 (nmol/L)] was then calculated.

BRD4 BD2 = target: T5, BRD4 BD2 (Homo sapiens, UniProt O60885); experiment: Binding assay, BRD4 BD2 to acetylated histone H4 Peptide-Biotin (EPIgeneous Binding Domain Kit B); conditions: for inhibition at 0.3 µM: test compound at 300 nmol/L, read-out: Binding inhibition percentage BRD4 BD2
T5 construct: BRD2 BD2, BRD3 BD2 and BRD4 BD2 (Cisbio); purchased Cisbio
Method: as §5, §2, §3, §4

[2] = system: human acute myeloid leukemia cell line MOLM-13; experiment: Cell growth test (Cell Titer Glo) MOLM-13; assay type: cell-based; conditions: 3 to 5 days
Excerpt: as §6, §7, §8, §9

BRD2 BD2 = target: T6, BRD2 BD2 (Homo sapiens, UniProt P25440); experiment: Binding assay, BRD2 BD2 to acetylated histone H4 Peptide-Biotin (EPIgeneous Binding Domain Kit B); conditions: for inhibition at 0.3 µM: test compound at 300 nmol/L, read-out: Binding inhibition percentage BRD2 BD2
T6 construct: BRD2 BD2, BRD3 BD2 and BRD4 BD2 (Cisbio); purchased Cisbio
Method: as §5, §2, §3, §4

[3] = system: human undifferentiated thymoma cell line Ty-82; experiment: Cell growth test (Cell Titer Glo) Ty-82; assay type: cell-based; conditions: TY82, 3 to 5 days
Excerpt: as §6, §7, §8, §9

T4 sequence (Q15059 306-415 limits assumed): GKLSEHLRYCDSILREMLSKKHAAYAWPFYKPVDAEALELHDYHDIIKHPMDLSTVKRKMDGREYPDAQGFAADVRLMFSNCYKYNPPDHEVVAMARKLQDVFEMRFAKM
T1 sequence (P25440 74-180 limits assumed): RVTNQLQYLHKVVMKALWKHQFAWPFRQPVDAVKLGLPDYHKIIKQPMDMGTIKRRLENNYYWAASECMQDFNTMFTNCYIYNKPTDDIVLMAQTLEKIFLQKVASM
T3 sequence (Q15059 34-140 limits assumed): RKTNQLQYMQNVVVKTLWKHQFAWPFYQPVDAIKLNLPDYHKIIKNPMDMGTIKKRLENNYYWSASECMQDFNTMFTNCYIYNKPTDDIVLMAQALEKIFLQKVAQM
T6 sequence (P25440 344-453 limits assumed): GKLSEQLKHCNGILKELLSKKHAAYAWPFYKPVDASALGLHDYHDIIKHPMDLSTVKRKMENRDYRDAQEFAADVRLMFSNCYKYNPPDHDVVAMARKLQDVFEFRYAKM

| inhibition at 0.3 µM (BRD2 BD1) [%] | inhibition at 0.3 µM (BRD4 BD1) [%] | inhibition at 0.3 µM (BRD3 BD1) [%] | inhibition at 0.3 µM (BRD3 BD2) [%] | GI50 [1] [nM] | inhibition at 0.3 µM (BRD4 BD2) [%] | GI50 [2] [nM] | inhibition at 0.3 µM (BRD2 BD2) [%] | GI50 [3] [nM] | IC50 (BRD2 BD1) [nM] | IC50 (BRD4 BD1) [nM] | IC50 (BRD3 BD1) [nM] | IC50 (BRD3 BD2) [nM] | IC50 (BRD4 BD2) [nM] | IC50 (BRD2 BD2) [nM] | Structure (SMILES) |
| --- | --- | --- | --- | --- | --- | --- | --- | --- | --- | --- | --- | --- | --- | --- | --- |
|  |  |  |  |  |  |  |  |  | 45 | 6 | 15 | 59 | 22 | 86 | CCn1c(=O)cc(C2CCN(C(C)=O)CC2)c2cc(C(=O)N(C)c3ccc(C)cc3)ccc21 [Example 290, 4-(1-acetylpiperidin-4-yl)-1-ethyl-N-methyl-N-(4-methylphenyl)-2-oxo-1,2-dihydroquinoline-6-carboxamide] |
| 64 | 85 | 88 | 91 |  | 84 |  | 83 |  |  |  |  |  |  |  | CCn1c(=O)cc(C)c2cc(-c3cccnc3-c3ccccc3)ccc21 [Example 291, 1-ethyl-4-methyl-6-(2-phenylpyridin-3-yl)quinolin-2(1H)-one] |
| 93 | 95 | 94 | 87 |  | 85 |  | 81 |  |  |  |  |  |  |  | CCn1c(=O)cc(C2CCN(C)CC2)c2cc(C(=O)N(C)c3ccc(C)c(F)c3)ccc21 [Example 292, 1-ethyl-N-(3-fluoro-4-methylphenyl)-N-methyl-4-(1-methylpiperidin-4-yl)-2-oxo-1,2-dihydroquinoline-6-carboxamide] |
| 94 | 94 | 93 | 90 |  | 87 |  | 88 |  |  |  |  |  |  |  | CCn1c(=O)cc(C2CCN(C)CC2)c2cc(C(=O)N(C)c3ccc(C)c(Cl)c3)ccc21 [Example 293, N-(3-chloro-4-methylphenyl)-1-ethyl-N-methyl-4-(1-methylpiperidin-4-yl)-2-oxo-1,2-dihydroquinoline-6-carboxamide] |
| 94 | 94 | 95 | 90 |  | 85 |  | 84 |  |  |  |  |  |  |  | CCn1c(=O)cc(C2CCN(C)CC2)c2cc(C(=O)N(C)c3ccc(C)c(C)c3)ccc21 [Example 294, N-(3,4-dimethylphenyl)-1-ethyl-N-methyl-4-(1-methylpiperidin-4-yl)-2-oxo-1,2-dihydroquinoline-6-carboxamide] |

Continued, molecule first:

| Structure (SMILES) | inhibition at 0.3 µM (BRD2 BD1) [%] | inhibition at 0.3 µM (BRD4 BD1) [%] | inhibition at 0.3 µM (BRD3 BD1) [%] | inhibition at 0.3 µM (BRD3 BD2) [%] | GI50 [1] [nM] | inhibition at 0.3 µM (BRD4 BD2) [%] | GI50 [2] [nM] | inhibition at 0.3 µM (BRD2 BD2) [%] | GI50 [3] [nM] | IC50 (BRD2 BD1) [nM] | IC50 (BRD4 BD1) [nM] | IC50 (BRD3 BD1) [nM] | IC50 (BRD3 BD2) [nM] | IC50 (BRD4 BD2) [nM] | IC50 (BRD2 BD2) [nM] |
| --- | --- | --- | --- | --- | --- | --- | --- | --- | --- | --- | --- | --- | --- | --- | --- |
| CCn1c(=O)cc(C2CCN(C)CC2)c2cc(C(=O)N3CCCc4ccccc43)ccc21 [Example 11, 6-(3,4-dihydroquinolin-1 (2H)-ylcarbonyl)-1-ethyl-4-(1-methylpiperidin-4-yl)quinolin-2(1H)-one] | 94 | 94 | 94 | 83 | 22 | 83 | 44 | 79 | 23 |  |  |  |  |  |  |
| CCn1c(=O)cc(C2CC2)c2cc(-n3c(C)cc(=O)n3-c3ccccc3)ccc21 [Example 282b, 4-Cyclopropyl-1-ethyl-6-(5-methyl-3-oxo-2-phenyl-2,3-dihydro-1H-pyrazol-1-yl)quinolin-2(1H)-one] | 71 | 91 | 89 | 92 |  | 87 |  | 88 |  |  |  |  |  |  |  |
| CCn1c(=O)cc(C2CC2)c2cc(-c3nc(C)[nH]c3-c3ccccc3)ccc21 [Example 283, 4-cyclopropyl-1-ethyl-6-(2-methyl-5-phenyl-1H-imidazol-4-yl)quinolin-2(1H)-one] | 68 | 90 | 87 | 92 |  | 87 |  | 86 |  |  |  |  |  |  |  |
| CCn1c(=O)cc(C2CC2)c2cc(-c3nccnc3-c3ccccc3)ccc21 [Example 284, 4-cyclopropyl-1-ethyl-6-(3-phenylpyrazin-2-yl)quinolin-2(1H)-one] | 83 | 93 | 93 | 92 |  | 89 |  | 88 |  |  |  |  |  |  |  |
| CCn1c(=O)cc(C2CCC(O)CC2)c2cc(C(=O)N(C)c3ccc(Cl)cc3)ccc21 (stereo not drawn) [Example 286, N-(4-chlorophenyl)-1-ethyl-4-(4-hydroxycyclohexyl)-N-methyl-2-oxo-1,2-dihydroquinoline-6-carboxamide] | 91 | 95 | 94 | 93 |  | 89 |  | 89 |  |  |  |  |  |  |  |
